Experiment [1] deals with Pneumocystis carinii. Kind of experiment: Effect on Pneumocystis carinii viability (ATP-driven bioluminescent assay). The settings on record: Pneumocystis carinii, read-out: Percent of Control Mean. It is filed as cell-based. Here is the method: 3. Pneumocystis carinii. The effect of CAY-1 on Pneumocystis carinii was determined as described previously [Cushion et al., Antimicrob. Agents Chemother., 1997, 41:379-384, herein incorporated by reference]. This assay is based on an ATP-driven bioluminescent reaction and was used to determine the concentration of CAY-1 which decreased the P. carinii ATP pools.

Experiment [2] concerns Candida species. The settings on record: a number of Candida species; cited from earlier work.

Where two headings read alike, the source gives them in different places.

Regarding `N=C(N)c1ccc(OCCCCCOc2ccc(C(=N)N)cc2)cc1` [Pentamidine, reference compound], the activity at 2.9 µM in experiment [1] (24 h) worked out at 46.2%; in experiment [1] (48 h) it was 22%; in experiment [1] (72 h), 3.9%. For the same molecule, the activity at 29 µM in experiment [1] (24 h) was 5.4%; in experiment [1] (48 h) it was 3.5%; in experiment [1] (72 h), 1.2%.
Turning to cyclainorin, the inhibitory properties result in experiment [2] is given as “inhibitory properties”.
As to `CC1(C)[C@@H](O[C@@H]2OC[C@H](O[C@@H]3O[C@H](CO)[C@@H](O)[C@H](O)[C@H]3O[C@@H]3OC[C@H](O)[C@H](O)[C@H]3O)[C@H](O)[C@H]2O[C@@H]2O[C@H](CO)[C@@H](O)[C@H](O)[C@H]2O)CC[C@]2(C)[C@H]3CC[C@]45OC[C@@]6(CC[C@](C)(C=O)C[C@H]64)[C@H](O)C[C@@]5(C)[C@]3(C)CC[C@@H]12` [deglucocyclamin], in experiment [2], the inhibitory properties result is listed as “inhibitory properties”.
As for `CC1(C)S[C@@H]2[C@H](NC(=O)[C@H](N)c3ccccc3)C(=O)N2[C@H]1C(=O)O` [Ampicillin, reference compound], the activity at 29 µM in experiment [1] (24 h, Day 1, 10 μg/ml, 29 μM) worked out at 96%; in experiment [1] (48 h, Day 2, 10 μg/ml, 29 μM), 94.7%; in experiment [1] (72 h, Day 3, 10 μg/ml, 29 μM) it was 94.8%.

(Values after patent publication US6310091A, “Fungicidal saponin, CAY-1, and isolation thereof from Capsium species fruit” (The United States of America as represented by the …, priority 2000, dated 2001).)
